From US10870832B2, “Use of small molecules to enhance MAFA expression in pancreatic endocrine cells” (Janssen Biotech, Inc., priority 2014, dated 2020)

Tests used:
Test in all cases: Kinase profiling of R428
Type in all cases: biochemical
GSK3 a(h) = GSK3 a(h) (Homo sapiens, UniProt P49840); settings: 100 μM ATP, lower number = more robust inhibition
Procedure: (§1) The efficiency of the AXL inhibitor R428 for targeting different kinases was assessed by Kinase Profiling Services using 100 μM ATP concentration (EMD Millipore). R428 was tested at 1 and 10 μM. Table IV lists the kinases profiled along with the efficiency in targeting the kinases with a lower number indicating a more robust inhibition of a particular kinase.

IGF-1R(h) = IGF-1R(h) (Homo sapiens, UniProt P08069); settings: 100 μM ATP, lower number = more robust inhibition
Procedure: as §1

Ret(h) = Ret(h) (Homo sapiens, UniProt P07949); settings: for efficiency in targeting Ret(h): 100 μM ATP, lower number = more robust inhibition
Sequence of Ret(h) (P07949 29-1114): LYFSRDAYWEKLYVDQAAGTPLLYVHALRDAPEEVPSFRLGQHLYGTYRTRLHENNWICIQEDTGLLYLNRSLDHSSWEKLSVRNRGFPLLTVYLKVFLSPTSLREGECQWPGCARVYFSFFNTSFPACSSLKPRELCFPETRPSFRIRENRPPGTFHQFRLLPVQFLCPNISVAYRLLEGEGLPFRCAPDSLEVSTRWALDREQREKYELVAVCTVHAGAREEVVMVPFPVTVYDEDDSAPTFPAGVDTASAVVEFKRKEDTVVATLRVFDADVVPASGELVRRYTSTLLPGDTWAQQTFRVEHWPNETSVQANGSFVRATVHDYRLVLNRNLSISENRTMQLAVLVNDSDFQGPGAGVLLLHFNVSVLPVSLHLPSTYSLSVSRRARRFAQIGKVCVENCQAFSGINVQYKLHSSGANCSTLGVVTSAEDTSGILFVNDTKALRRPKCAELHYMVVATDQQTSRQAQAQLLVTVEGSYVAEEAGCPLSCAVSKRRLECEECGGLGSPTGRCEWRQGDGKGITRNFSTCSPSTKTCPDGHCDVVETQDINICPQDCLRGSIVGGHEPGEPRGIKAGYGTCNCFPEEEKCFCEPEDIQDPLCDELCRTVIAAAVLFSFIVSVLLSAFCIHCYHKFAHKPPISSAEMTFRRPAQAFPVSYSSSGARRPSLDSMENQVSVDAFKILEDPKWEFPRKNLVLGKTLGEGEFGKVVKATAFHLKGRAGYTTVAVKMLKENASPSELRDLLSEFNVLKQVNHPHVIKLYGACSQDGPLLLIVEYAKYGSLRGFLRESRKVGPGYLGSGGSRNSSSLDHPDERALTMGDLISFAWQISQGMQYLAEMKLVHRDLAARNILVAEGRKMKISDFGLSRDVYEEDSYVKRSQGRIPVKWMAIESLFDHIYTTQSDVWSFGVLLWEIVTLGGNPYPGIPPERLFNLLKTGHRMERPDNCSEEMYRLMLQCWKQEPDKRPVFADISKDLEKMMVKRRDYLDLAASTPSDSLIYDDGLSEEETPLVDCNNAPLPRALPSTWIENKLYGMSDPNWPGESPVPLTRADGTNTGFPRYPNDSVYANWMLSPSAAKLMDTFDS
Procedure: as §1

Rsk3(h) = Rsk3(h) (Homo sapiens, UniProt Q15349); settings: for efficiency in targeting Rsk3(h): 100 μM ATP, lower number = more robust inhibition
Sequence of Rsk3(h) (Q15349 whole entry): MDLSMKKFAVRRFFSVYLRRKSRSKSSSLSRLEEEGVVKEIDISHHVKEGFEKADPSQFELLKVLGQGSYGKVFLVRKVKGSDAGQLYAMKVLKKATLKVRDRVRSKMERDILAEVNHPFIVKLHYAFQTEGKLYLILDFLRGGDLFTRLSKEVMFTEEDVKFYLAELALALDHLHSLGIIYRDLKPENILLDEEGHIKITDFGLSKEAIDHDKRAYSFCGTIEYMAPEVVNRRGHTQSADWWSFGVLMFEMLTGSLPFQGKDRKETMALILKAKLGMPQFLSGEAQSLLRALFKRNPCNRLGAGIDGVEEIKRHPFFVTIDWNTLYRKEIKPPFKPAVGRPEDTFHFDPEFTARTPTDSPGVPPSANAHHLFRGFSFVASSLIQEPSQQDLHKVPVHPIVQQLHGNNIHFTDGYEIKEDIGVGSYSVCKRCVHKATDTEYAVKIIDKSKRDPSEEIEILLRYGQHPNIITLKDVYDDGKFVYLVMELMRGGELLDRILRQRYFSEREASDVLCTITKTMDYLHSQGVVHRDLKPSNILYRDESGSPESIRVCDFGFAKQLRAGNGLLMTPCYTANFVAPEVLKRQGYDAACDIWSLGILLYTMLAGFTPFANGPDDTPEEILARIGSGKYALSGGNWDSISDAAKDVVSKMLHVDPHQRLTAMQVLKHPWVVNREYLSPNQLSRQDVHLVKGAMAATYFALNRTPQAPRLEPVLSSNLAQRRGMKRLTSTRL
Procedure: as §1

JAK2(h) = JAK2(h) (Homo sapiens, UniProt O60674); settings: 100 μM ATP, lower number = more robust inhibition
Procedure: as §1

cSRC(h) = cSRC(h) (Homo sapiens, UniProt P12931); settings: 100 μM ATP, lower number = more robust inhibition
Procedure: as §1

CHK1(h) = CHK1(h) (Homo sapiens, UniProt O14757); settings: 100 μM ATP, lower number = more robust inhibition
Procedure: as §1

PKCβ1(h) = PKCβ1(h) (Homo sapiens, UniProt P05771); settings: 100 μM ATP, lower number = more robust inhibition
Procedure: as §1

Eph A 2(h) = Eph A 2(h) (Homo sapiens, UniProt P29317); settings: 100 μM ATP, lower number = more robust inhibition
Procedure: as §1

EGFR(h) = EGFR(h) (Homo sapiens, UniProt P00533); settings: 100 μM ATP, lower number = more robust inhibition
Sequence of EGFR(h) (P00533 25-1210): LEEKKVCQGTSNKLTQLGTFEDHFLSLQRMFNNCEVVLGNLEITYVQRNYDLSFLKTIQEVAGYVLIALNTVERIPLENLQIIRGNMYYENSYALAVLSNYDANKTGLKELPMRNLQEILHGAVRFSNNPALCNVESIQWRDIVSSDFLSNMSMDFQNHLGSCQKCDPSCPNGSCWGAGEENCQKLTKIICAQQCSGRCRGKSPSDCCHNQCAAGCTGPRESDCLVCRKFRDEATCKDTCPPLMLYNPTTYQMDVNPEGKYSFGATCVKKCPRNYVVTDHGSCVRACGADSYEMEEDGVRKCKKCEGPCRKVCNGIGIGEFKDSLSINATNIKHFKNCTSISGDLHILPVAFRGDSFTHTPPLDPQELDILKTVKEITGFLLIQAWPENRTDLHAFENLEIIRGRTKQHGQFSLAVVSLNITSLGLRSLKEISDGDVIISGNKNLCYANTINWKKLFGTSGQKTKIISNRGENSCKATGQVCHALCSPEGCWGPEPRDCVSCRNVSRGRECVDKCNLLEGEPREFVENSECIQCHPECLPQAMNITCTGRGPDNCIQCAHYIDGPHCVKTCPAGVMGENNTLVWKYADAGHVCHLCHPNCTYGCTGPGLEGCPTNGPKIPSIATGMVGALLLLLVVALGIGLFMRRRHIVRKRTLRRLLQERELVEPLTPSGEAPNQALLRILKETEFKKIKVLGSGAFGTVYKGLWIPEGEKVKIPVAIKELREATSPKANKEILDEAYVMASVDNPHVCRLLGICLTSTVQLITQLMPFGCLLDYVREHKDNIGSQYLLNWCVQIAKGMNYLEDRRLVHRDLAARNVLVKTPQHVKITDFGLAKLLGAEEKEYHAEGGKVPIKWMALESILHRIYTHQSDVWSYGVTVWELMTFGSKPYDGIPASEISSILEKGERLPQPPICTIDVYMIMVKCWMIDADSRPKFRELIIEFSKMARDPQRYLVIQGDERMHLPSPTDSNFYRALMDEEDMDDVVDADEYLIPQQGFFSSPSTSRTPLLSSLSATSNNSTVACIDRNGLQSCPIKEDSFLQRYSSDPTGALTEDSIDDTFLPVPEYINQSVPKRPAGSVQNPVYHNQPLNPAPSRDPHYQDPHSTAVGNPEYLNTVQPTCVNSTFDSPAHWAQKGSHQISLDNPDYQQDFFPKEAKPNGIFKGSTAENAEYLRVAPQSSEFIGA
Procedure: as §1

Aurora-B(h) = Aurora-B(h) (Homo sapiens, UniProt Q96GD4); settings: for efficiency in targeting Aurora-B(h): 100 μM ATP, lower number = more robust inhibition
Sequence of Aurora-B(h) (Q96GD4 whole entry): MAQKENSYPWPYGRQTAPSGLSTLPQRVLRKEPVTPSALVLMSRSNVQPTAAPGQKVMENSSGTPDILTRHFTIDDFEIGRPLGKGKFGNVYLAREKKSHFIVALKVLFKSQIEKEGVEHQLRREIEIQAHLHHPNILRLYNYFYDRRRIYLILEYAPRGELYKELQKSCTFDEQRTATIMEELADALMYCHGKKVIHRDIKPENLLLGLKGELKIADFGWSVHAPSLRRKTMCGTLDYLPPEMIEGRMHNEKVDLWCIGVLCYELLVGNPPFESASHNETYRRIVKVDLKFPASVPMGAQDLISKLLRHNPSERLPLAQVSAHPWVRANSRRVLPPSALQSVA
Procedure: as §1

JAK3(h) = JAK3(h) (Homo sapiens, UniProt P52333); settings: 100 μM ATP, lower number = more robust inhibition
Procedure: as §1

GSK313(h) = GSK313(h) (Homo sapiens, UniProt P49841); settings: 100 μM ATP, lower number = more robust inhibition
Sequence of GSK313(h) (P49841 whole entry): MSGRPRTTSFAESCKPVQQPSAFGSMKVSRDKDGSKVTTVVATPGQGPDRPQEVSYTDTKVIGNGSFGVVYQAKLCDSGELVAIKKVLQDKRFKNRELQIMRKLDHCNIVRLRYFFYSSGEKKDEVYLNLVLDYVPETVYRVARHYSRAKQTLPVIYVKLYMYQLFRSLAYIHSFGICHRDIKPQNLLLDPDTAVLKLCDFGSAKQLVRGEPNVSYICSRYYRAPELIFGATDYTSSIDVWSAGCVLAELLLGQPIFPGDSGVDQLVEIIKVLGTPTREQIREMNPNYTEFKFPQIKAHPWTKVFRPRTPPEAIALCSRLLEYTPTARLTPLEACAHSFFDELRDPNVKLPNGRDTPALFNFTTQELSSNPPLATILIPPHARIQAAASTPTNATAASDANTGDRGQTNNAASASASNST
Procedure: as §1

Met(h) = Met(h) (Homo sapiens, UniProt P08581); settings: 100 μM ATP, lower number = more robust inhibition
Procedure: as §1

CLK2(h) = CLK2(h) (Homo sapiens, UniProt P49760); settings: 100 μM ATP, lower number = more robust inhibition
Procedure: as §1

TGEBR1(h) = TGEBR1(h) (Homo sapiens, UniProt P36897); settings: 100 μM ATP, lower number = more robust inhibition
Procedure: as §1

CK2(h) = CK2(h) (Homo sapiens, UniProt P68400); settings: 100 μM ATP, lower number = more robust inhibition
Procedure: as §1

SAPK4(h) = SAPK4(h) (Homo sapiens, UniProt O15264); settings: 100 μM ATP, lower number = more robust inhibition
Procedure: as §1

CHK2(h) = CHK2(h) (Homo sapiens, UniProt O96017); settings: 100 μM ATP, lower number = more robust inhibition
Sequence of CHK2(h) (O96017 whole entry): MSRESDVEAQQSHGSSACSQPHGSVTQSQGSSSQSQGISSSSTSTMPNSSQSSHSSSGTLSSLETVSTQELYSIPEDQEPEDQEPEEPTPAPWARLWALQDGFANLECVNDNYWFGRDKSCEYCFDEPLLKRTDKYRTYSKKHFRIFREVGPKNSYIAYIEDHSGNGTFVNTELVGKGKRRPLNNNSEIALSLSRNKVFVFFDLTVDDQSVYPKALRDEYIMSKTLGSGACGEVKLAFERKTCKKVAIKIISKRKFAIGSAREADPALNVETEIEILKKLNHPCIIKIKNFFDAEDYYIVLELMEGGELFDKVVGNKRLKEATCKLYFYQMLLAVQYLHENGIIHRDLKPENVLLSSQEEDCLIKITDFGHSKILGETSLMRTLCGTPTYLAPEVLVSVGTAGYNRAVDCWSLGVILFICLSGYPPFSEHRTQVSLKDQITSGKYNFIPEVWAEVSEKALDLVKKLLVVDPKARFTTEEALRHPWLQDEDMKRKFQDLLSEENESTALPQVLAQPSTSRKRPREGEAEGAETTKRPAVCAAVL
Procedure: as §1

Blk(h) = Blk(h) (Homo sapiens, UniProt P51451); settings: 100 μM ATP, lower number = more robust inhibition
Procedure: as §1

Pim-2(h) = Pim-2(h) (Homo sapiens, UniProt Q9P1W9); settings: 100 μM ATP, lower number = more robust inhibition
Procedure: as §1

CDK1/cyclinB (Hh) = CDK1/cyclinB (Hh) (Homo sapiens, UniProt P06493); settings: 100 μM ATP, lower number = more robust inhibition
Sequence of CDK1/cyclinB (Hh) (P06493 whole entry): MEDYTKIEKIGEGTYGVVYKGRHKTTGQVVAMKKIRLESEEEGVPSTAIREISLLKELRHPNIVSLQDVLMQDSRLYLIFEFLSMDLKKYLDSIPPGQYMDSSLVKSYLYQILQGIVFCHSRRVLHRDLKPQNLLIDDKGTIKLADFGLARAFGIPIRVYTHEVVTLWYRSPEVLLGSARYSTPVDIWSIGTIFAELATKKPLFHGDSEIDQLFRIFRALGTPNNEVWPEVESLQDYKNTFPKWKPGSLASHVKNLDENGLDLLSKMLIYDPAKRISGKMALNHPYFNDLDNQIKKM
Sequence of CDK1/cyclinB (Hh) (P14635 whole entry partner): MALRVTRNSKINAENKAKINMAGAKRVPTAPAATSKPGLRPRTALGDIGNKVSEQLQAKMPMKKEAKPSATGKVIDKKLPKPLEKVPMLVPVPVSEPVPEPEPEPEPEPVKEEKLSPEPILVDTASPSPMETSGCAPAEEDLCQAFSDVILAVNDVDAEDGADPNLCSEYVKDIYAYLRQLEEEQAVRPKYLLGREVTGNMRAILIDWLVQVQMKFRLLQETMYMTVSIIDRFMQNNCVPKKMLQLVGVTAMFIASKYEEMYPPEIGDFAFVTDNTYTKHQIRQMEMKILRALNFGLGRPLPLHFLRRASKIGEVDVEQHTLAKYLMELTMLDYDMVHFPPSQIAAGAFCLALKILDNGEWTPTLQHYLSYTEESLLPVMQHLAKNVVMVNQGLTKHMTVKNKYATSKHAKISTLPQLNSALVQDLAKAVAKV
Procedure: as §1

ZAP-70(h) = ZAP-70(h) (Homo sapiens, UniProt P43403); settings: 100 μM ATP, lower number = more robust inhibition
Procedure: as §1

PKCα(h) = PKCα(h) (Homo sapiens, UniProt P17252); settings: 100 μM ATP, lower number = more robust inhibition
Procedure: as §1

IR(h) = IR(h) (Homo sapiens, UniProt P06213); settings: 100 μM ATP, lower number = more robust inhibition
Procedure: as §1

ALK4(h) = ALK4(h) (Homo sapiens, UniProt P36896); settings: 100 μM ATP, lower number = more robust inhibition
Procedure: as §1

MAPK1(h) = MAPK1(h) (Homo sapiens, UniProt P27361); settings: 100 μM ATP, lower number = more robust inhibition
Procedure: as §1

CDK5/p35(h) = CDK5/p35(h) (Homo sapiens, UniProt Q00535); settings: 100 μM ATP, lower number = more robust inhibition
Procedure: as §1

CaMKIδ(h) = CaMKIδ(h) (Homo sapiens, UniProt Q8IU85); settings: 100 μM ATP, lower number = more robust inhibition
Procedure: as §1

Nc1nc(Nc2ccc3c(c2)CC[C@@H](N2CCCC2)CC3)nn1-c1cc2c(nn1)-c1ccccc1CCC2 [R428, 1H-1,2,4-Triazole-3,5-diamine, 1-(6,7-dihydro-5H-benzo[6,7]cyclohepta[1,2-c]pyridazin-3-yl) N3-[(7S)-6,7,8,9-tetrahydro-7-(1-pyrrolidinyl)-5H-benzocyclohepten-2-yl]-]
efficiency in targeting GSK3 a(h) (GSK3 a(h); R428 @ 1 μM): 95
efficiency in targeting GSK3 a(h) (GSK3 a(h); R428 @ 10 μM): 105
efficiency in targeting IGF-1R(h) (IGF-1R(h); R428 @ 1 μM): 93
efficiency in targeting IGF-1R(h) (IGF-1R(h); R428 @ 10 μM): 58
efficiency in targeting Ret(h) (Ret(h); R428 @ 1 μM): 1
efficiency in targeting Ret(h) (Ret(h); R428 @ 10 μM): 1
inhibition of Ret (in words) (Ret(h); at 1 and 10 μM): potently inhibits
efficiency in targeting Rsk3(h) (Rsk3(h); R428 @ 1 μM): 2
efficiency in targeting Rsk3(h) (Rsk3(h); R428 @ 10 μM): 1
inhibition of RSK3 (in words) (Rsk3(h); at 1 and 10 μM): potently inhibits
efficiency in targeting JAK2(h) (JAK2(h); R428 @ 1 μM): 96
efficiency in targeting JAK2(h) (JAK2(h); R428 @ 10 μM): 41
efficiency in targeting cSRC(h) (cSRC(h); R428 @ 1 μM): 51
efficiency in targeting cSRC(h) (cSRC(h); R428 @ 10 μM): 10
efficiency in targeting CHK1(h) (CHK1(h); R428 @ 1 μM): 71
efficiency in targeting CHK1(h) (CHK1(h); R428 @ 10 μM): 23
efficiency in targeting PKCβ1(h) (PKCβ1(h); R428 @ 1 μM): 102
efficiency in targeting PKCβ1(h) (PKCβ1(h); R428 @ 10 μM): 95
efficiency in targeting Eph A 2(h) (Eph A 2(h); R428 @ 1 μM): 54
efficiency in targeting Eph A 2(h) (Eph A 2(h); R428 @ 10 μM): 12
efficiency in targeting EGFR(h) (EGFR(h); R428 @ 1 μM): 89
efficiency in targeting EGFR(h) (EGFR(h); R428 @ 10 μM): 40
efficiency in targeting Aurora-B(h) (Aurora-B(h); R428 @ 1 μM): 1
efficiency in targeting Aurora-B(h) (Aurora-B(h); R428 @ 10 μM): 0
inhibition of AuroraB (in words) (Aurora-B(h); at 1 and 10 μM): potently inhibits
efficiency in targeting JAK3(h) (JAK3(h); R428 @ 1 μM): 69
efficiency in targeting JAK3(h) (JAK3(h); R428 @ 10 μM): 18
efficiency in targeting GSK313(h) (GSK313(h); R428 @ 1 μM): 106
efficiency in targeting GSK313(h) (GSK313(h); R428 @ 10 μM): 99
efficiency in targeting Met(h) (Met(h); R428 @ 1 μM): 49
efficiency in targeting Met(h) (Met(h); R428 @ 10 μM): -1
efficiency in targeting CLK2(h) (CLK2(h); R428 @ 1 μM): 78
efficiency in targeting CLK2(h) (CLK2(h); R428 @ 10 μM): 28
efficiency in targeting TGEBR1(h) (TGEBR1(h); R428 @ 1 μM): 97
efficiency in targeting TGEBR1(h) (TGEBR1(h); R428 @ 10 μM): 69
efficiency in targeting CK2(h) (CK2(h); R428 @ 1 μM): 103
efficiency in targeting CK2(h) (CK2(h); R428 @ 10 μM): 106
efficiency in targeting SAPK4(h) (SAPK4(h); R428 @ 1 μM): 94
efficiency in targeting SAPK4(h) (SAPK4(h); R428 @ 10 μM): 91
efficiency in targeting CHK2(h) (CHK2(h); R428 @ 1 μM): 47
efficiency in targeting CHK2(h) (CHK2(h); R428 @ 10 μM): 9
efficiency in targeting Blk(h) (Blk(h); R428 @ 1 μM): 27
efficiency in targeting Blk(h) (Blk(h); R428 @ 10 μM): 2
efficiency in targeting Pim-2(h) (Pim-2(h); R428 @ 1 μM): 87
efficiency in targeting Pim-2(h) (Pim-2(h); R428 @ 10 μM): 74
efficiency in targeting CDK1/cyclinB (Hh) (CDK1/cyclinB (Hh); R428 @ 1 μM): 101
efficiency in targeting CDK1/cyclinB (Hh) (CDK1/cyclinB (Hh); R428 @ 10 μM): 88
efficiency in targeting ZAP-70(h) (ZAP-70(h); R428 @ 1 μM): 92
efficiency in targeting ZAP-70(h) (ZAP-70(h); R428 @ 10 μM): 66
efficiency in targeting PKCα(h) (PKCα(h); R428 @ 1 μM): 101
efficiency in targeting PKCα(h) (PKCα(h); R428 @ 10 μM): 96
efficiency in targeting IR(h) (IR(h); R428 @ 1 μM): 83
efficiency in targeting IR(h) (IR(h); R428 @ 10 μM): 24
efficiency in targeting ALK4(h) (ALK4(h); R428 @ 1 μM): 84
efficiency in targeting ALK4(h) (ALK4(h); R428 @ 10 μM): 48
efficiency in targeting MAPK1(h) (MAPK1(h); R428 @ 1 μM): 108
efficiency in targeting MAPK1(h) (MAPK1(h); R428 @ 10 μM): 106
efficiency in targeting CDK5/p35(h) (CDK5/p35(h); R428 @ 1 μM): 101
efficiency in targeting CDK5/p35(h) (CDK5/p35(h); R428 @ 10 μM): 94
efficiency in targeting CaMKIδ(h) (CaMKIδ(h); R428 @ 1 μM): 76
efficiency in targeting CaMKIδ(h) (CaMKIδ(h); R428 @ 10 μM): 24
